This is an account of results in patent US8993585B2, “Cyclic amine substituted pyrimidinediamines as PKC inhibitors” (Rigel Pharmaceuticals, Inc., priority 2007, dated 2015).

Usually IC50 stands for the point on the concentration scale where inhibition reaches its midpoint.

In test [1] the target is T1, PKC theta (Homo sapiens, UniProt Q04759).
T1 construct: purchased Upstate Biotechnologies, Temecula, CA 14-444
Put plainly: PKC assay, fluorescence polarization (Example 2), PKC theta. Type of test: biochemical. To be noted: 5 μM ATP. The gist of the method:
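Phosphorylated peptide product detected by fluorescence polarization, with EDTA quench plus peptide tracer and antibody. Reaction in 20 mM HEPES pH 7.4, 5 mM MgCl2, 0.2 mM CaCl2, 1 mM DTT, 0.02% Brij-35, phosphatidylserine and dioleoyl-sn-glycerol, with 5 μM ATP and 5 μM peptide. Started with enzyme, 20 min at room temperature.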

For test [2], the target named is T2, PKC epsilon (Homo sapiens, UniProt Q02156).
T2 construct: purchased Upstate Biotechnologies, Temecula, CA 14-518
T2 sequence (Q02156 1-737): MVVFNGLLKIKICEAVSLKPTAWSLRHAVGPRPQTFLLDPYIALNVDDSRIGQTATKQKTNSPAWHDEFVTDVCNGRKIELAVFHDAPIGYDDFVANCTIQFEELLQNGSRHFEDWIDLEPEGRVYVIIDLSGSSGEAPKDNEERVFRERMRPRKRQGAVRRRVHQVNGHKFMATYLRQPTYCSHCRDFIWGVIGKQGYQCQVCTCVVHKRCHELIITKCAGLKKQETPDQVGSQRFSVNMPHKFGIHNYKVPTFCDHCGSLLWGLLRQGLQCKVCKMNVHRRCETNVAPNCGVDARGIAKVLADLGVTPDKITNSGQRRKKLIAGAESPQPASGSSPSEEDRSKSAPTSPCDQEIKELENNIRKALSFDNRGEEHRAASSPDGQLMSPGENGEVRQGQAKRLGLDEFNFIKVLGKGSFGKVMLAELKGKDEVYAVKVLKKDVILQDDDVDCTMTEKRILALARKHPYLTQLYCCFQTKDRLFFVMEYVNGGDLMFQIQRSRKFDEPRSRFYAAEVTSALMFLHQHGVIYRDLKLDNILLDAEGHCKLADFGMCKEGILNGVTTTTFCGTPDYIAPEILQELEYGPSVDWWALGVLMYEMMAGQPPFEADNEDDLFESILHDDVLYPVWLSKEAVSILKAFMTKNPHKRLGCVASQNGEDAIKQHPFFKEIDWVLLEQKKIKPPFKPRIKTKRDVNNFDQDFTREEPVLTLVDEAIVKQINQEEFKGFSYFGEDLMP
Briefly: PKC assay, fluorescence polarization (Example 2), PKC epsilon. Type of test: biochemical. To be noted: 5 μM ATP. As to the method: (§1) The inhibition of PKC activity was measured by monitoring the production of phosphorylated peptide by fluorescence polarization at different concentrations of the inhibitor. Reactions were carried out in 96-well plate format with a total volume of 20 μL containing 20 mM HEPES, pH 7.4, 5 mM MgCl2, 0.2 mM CaCl2, 1 mM DTT, 0.02% Brij-35, 0.1 mg/mL phosphatidylserine, 0.02 mg/mL dioleoyl-sn-glycerol and 5 μM each of ATP and the peptide substrate. Compounds were first diluted serially in DMSO and then transferred to a solution containing the above concentrations of HEPES, MgCl2, CaCl2, DTT, and Brij-35 to yield 5× compound solutions in 2% DMSO, which was then added to the reaction solution. Reactions were initiated by the addition of PKC at a typical concentration as described in Table VI, and then allowed to incubate at room temperature for 20 min. At the end of this time, a combination of quench (EDTA) and detection (peptide tracer and antibody) reagents was added using the protocol of Invitrogen P2748.
Background: Polarisation of emitted light reports the rotation of a fluorescent probe.

The target in test [3] is T3, PKC mu (Homo sapiens, UniProt Q15139).
T3 sequence (Q15139 1-912): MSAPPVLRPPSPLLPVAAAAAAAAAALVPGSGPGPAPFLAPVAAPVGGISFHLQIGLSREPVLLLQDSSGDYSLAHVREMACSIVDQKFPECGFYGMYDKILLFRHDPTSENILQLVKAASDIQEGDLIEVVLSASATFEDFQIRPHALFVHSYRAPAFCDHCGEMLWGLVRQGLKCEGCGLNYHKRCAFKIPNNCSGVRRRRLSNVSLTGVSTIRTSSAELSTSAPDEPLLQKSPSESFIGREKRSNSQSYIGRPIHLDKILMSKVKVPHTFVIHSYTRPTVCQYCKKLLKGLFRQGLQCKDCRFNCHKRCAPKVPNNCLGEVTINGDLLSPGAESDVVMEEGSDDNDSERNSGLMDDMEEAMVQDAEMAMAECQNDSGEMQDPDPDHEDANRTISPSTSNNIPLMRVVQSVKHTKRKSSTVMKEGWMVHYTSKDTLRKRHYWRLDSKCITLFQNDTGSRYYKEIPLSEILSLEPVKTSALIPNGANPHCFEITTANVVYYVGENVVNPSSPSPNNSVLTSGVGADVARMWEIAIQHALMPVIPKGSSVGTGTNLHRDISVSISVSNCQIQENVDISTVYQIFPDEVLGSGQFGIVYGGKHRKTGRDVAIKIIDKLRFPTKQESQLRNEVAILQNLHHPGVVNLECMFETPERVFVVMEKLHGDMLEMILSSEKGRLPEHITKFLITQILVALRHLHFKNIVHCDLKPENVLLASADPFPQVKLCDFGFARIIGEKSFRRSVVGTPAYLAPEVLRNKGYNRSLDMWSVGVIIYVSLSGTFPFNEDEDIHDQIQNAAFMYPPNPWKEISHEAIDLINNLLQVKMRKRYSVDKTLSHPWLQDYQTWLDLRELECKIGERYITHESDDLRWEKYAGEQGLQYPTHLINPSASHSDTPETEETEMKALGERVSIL
Briefly: PKC assay, fluorescence polarization (Example 2), PKC mu. The test is classed as biochemical. To be noted: 5 μM ATP. As to the method: as §1, with “P2748. After a 30 min. period of incubation, the amount of phosphorylated peptide generated was measured by fluorescence polarization (Ex=485 nm, Em=535 nm) using a Tecan Polarian instrument.” for “P2748.”

Test [4] has as its system Human primary T cells. Briefly: IL-2 ELISA, Human Primary T Cell, Anti-CD3+CD28+ (Example 3). Type of test: cell-based. Conditions: Homo sapiens, T-cell, 24 h, anti-CD3+CD28 stimulation. The gist of the method: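 IL-2 was read by ELISA after stimulation on wells pre-coated with 1 ug/ml αCD3 and 5 μg/ml αCD28. Before this, 100,000 human primary T cells per well spent 1 h at 37 °C with test compound in Yssel's medium. The counter-screen replaced antibody stimulation with PMA (0.5 ng/ml final) and ionomycin (0.1 uM final).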

T1 sequence (Q04759 whole entry): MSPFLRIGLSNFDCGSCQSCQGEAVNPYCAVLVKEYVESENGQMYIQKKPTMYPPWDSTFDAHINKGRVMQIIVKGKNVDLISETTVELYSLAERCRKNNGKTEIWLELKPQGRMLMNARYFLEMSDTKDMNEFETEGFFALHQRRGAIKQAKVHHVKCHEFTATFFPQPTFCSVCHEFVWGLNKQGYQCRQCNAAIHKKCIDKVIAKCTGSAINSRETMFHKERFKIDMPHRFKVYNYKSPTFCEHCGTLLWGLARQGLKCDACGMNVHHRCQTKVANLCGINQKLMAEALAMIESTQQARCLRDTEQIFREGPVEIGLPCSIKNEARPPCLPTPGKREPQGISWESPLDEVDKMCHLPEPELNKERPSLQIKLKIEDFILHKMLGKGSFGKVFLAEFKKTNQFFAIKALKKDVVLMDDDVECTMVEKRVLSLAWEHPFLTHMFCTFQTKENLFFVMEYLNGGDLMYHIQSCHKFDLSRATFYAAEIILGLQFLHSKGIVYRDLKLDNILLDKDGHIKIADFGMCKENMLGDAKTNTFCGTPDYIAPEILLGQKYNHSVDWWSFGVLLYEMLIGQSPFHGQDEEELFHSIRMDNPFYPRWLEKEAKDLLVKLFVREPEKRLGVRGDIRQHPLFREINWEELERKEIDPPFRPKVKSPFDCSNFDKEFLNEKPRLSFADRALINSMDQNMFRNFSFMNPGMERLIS

Turning to `CN1CCN(c2ccc(Nc3ncc(C(F)(F)F)c(NC4CC(C)(C)N(C)C(C)(C)C4)n3)cc2C(F)(F)F)CC1` [Compound I-38], the IC50 in test [1] was found to be 16 nM; in test [2] it was 506 nM; in test [3], 33 nM; in test [4], 196 nM.

Regarding `COc1cc(Nc2ncc(Br)c(NC3CC(C)(C)N(C)C(C)(C)C3)n2)cc(OC)c1` [Compound I-422], the IC50 is 10.2 nM in test [1], 165 nM in test [2] and 250 nM in test [4].

With `Cc1ccc(Nc2ncc(F)c(NC3CC(C)(C)N(C)C(C)(C)C3)n2)cc1C#N` [Compound I-142], the values for the IC50 in test [1], in test [2] and in test [4] were 2.92 nM, 31 nM and 80.7 nM, respectively.

As for `Cc1cc(Nc2ncc(F)c(NC3CC(C)(C)N(C)C(C)(C)C3)n2)ccc1-c1cccnc1` [Compound I-121], the IC50 was 23.7 nM in test [1], 15.8 nM in test [2] and 268 nM in test [4].

With `CCN1CCN(c2ccc(Nc3ncc(F)c(NC4CC(C)(C)N(C)C(C)(C)C4)n3)cc2Cl)CC1` [Compound I-248], the IC50 was found to be 2.75 nM in test [1], 13.4 nM in test [2] and 110 nM in test [4].

In the case of `COc1ccc(Nc2ncc(C(F)(F)F)c(NC3CC(C)(C)N(C)C(C)(C)C3)n2)cc1OC(F)F` [Compound I-350], the IC50 in test [1] was 3.41 nM; in test [2] it was 589 nM; in test [4], 161 nM.

Take `COc1ccc(Nc2ncc(C#N)c(NC3CC(C)(C)N(C)C(C)(C)C3)n2)cc1OC(F)F` [Compound I-366]: the IC50 in test [1] is 1.71 nM; in test [2] it was 89.6 nM; in test [4], 122 nM.

On to `COc1ccc(Nc2ncc(F)c(NC3CC(C)(C)N(C)C(C)(C)C3)n2)cc1-n1c(C)ccc1C` [Compound I-348], for which the IC50 in test [1] was 3.66 nM; in test [2], 100 nM; in test [4], 172 nM.

In the case of `CN1C(C)(C)CC(Nc2nc(Nc3ccc(N4CCCC4)c(C(F)(F)F)c3)ncc2F)CC1(C)C` [Compound I-232], the IC50 was found to be 63.4 nM in test [1], 42 nM in test [2] and 894 nM in test [4].

On to `CCOc1ccc(Nc2ncc(C#N)c(NC3CC(C)(C)NC(C)(C)C3)n2)cc1-n1nnnc1CC` [Compound I-469], for which the figures for the IC50 in test [1], in test [2] and in test [4] were 1.5 nM, 129 nM and 120 nM, respectively.

For the compound `CN1C(=O)C(F)(F)Oc2cc(Nc3ncc(F)c(NC4CC(C)(C)N(C)C(C)(C)C4)n3)ccc21` [II-8], the IC50 came out at 2.43 nM in test [1], 57.9 nM in test [2] and 90 nM in test [4].

For the compound `Cc1nnnn1-c1cccc(Nc2ncc(C#N)c(NC3CC(C)(C)NC(C)(C)C3)n2)c1` [Compound I-463], the IC50 came to 3.6 nM in test [1], 125 nM in test [2] and 590 nM in test [4].

With `CN1C(C)(C)CC(Nc2nc(Nc3ccc(-n4cccc4)c(C#N)c3)ncc2Cl)CC1(C)C` [Compound I-167], the IC50 in test [1] worked out at 3.87 nM; in test [2], 197 nM; in test [4] it was 227 nM.

Take `CN1C(C)(C)CC(Nc2nc(Nc3cc(OCC(F)(F)F)cc(OCC(F)(F)F)c3)ncc2F)CC1(C)C` [Compound I-378]: the IC50 in test [1] turned out to be 3.5 nM; in test [2], 42.9 nM; in test [4], 310 nM.

On to `CN1C(C)(C)CC(Nc2nc(Nc3ccc(F)c(C#N)c3)ncc2Cl)CC1(C)C` [Compound I-166], for which the IC50 stood at 4.26 nM in test [1], 198 nM in test [2] and 281 nM in test [4].

Turning to `CCOc1ccc(Nc2ncc(C#N)c(NC3CC(C)(C)N(C)C(C)(C)C3)n2)cc1-n1nnnc1CC` [Compound I-460], the IC50 in test [1] is 0.4 nM; in test [2] it was 60 nM; in test [4] it was 30 nM.

Turning to `CN1CCN(c2ccc(Nc3ncc(F)c(NC4CC(C)(C)N(C)C(C)(C)C4)n3)cc2C#N)CC1` [Compound I-132], the IC50 in test [1] is 1.82 nM; in test [2], 12.5 nM; in test [4] it was 64.9 nM.
